The values that follow come from patent US4483872A, “Non-classical topical treatment for glaucoma using n-substituted sulfonamides” (University of Iowa Research Foundation, priority 1983, dated 1984).

In test [1] the test system is eye of normal adult white rabbits. Kind of test: IOP after topical drops of 1% solution, Examples 6 and 7. The format is in vivo, rabbit. More on the design: unit: mm Hg. Conditions: 3 drops. The procedure:
A 1% solution of 1-(N-hydroxy-N-methylsulfamido)-4-chlorobenzene and a 1% solution of 1-(N-hydroxy-N-methyl-sulfamido)-4-nitrobenzene were prepared for two separate experiments, examples 6 and 7 resepctively. The vehicle consisted of aqueous pH 7.2 phosphate buffer. One drop, followed by two drops each at one minute intervals, was applied to one eye of normal adult white rabbits. Six rabbits were used in example 6 and twelve rabbits in example 7. The treated eye was selected randomly, whereas, the fellow eye received placebo. The observer was masked. The intraocular pressure (IOP) was measured with a Digilab pneumotonometer, initially and every ten minutes for 180 minutes in each experiment following instillation of the anti-glaucoma agent. A drop of local anesthetic was applied to each eye just prior to making the measurement.

In test [2] the target is carbonic anhydrase. Briefly: in vitro carbonic anhydrase activity, simplified method of Maren. Format: biochemical. The procedure:
The procedure required the use of a specialized glass reaction vessel to which was added 0.4 ml phenol red indicator (0.00125%), 0.25 to 0.30 ml heparinized blood containing 2 enzyme units of carbonic anhydrase, 0.1 ml drug solution (0.01 to 100 mg/L) and 0.1 ml of 0.255 M carbonate buffer. […] Water was added to the reaction vessel which was kept in a water bath at 0±0.25° C. The reaction cell was constantly purged with CO2 at a rate of 200 to 250 ml/min. Each reagent was added at a specified time and in a specified order. […] The time required for the reaction begins with the addition of carbonate buffer and was completed with the indicator changed from red to yellow. […] Reaction time was the time for the uncatalyzed reaction time. The reaction times remain constant once equilibration has been attained. By varying the time before adding the carbonate buffer and then determining the reaction time, the equilibration time can be accurately determined. The reaction time was averaged over three determinations. A range of drug concentrations were reacted and the concentration of drug causing 50% inhibition of enzyme (I50) read from a plot of reaction time against drug concentration. (If two enzyme units are added, then the concentration of drug yielding a reaction time corresponding to the activity of one unit is taken as the I50). An enzyme unit (e.u.) was calculated from: [formula]

Test [3] relates to eye of normal adult white rabbits. Briefly: Salted rabbit test: intraocular pressure (IOP) after topical drops. The format is in vivo. The procedure: In particular, an initial drop from the test formulation followed by two drops at one minute intervals are applid to one eye of each of six adult white rabbits that had been maintained on a diet containing 0.5% sodium. The treated eye was selected randomly, whereas, the fellow eye received placebo; the observer was masked. Results identified a small but significant reduction of intraocular pressure in the treated eye at 30, 60 and 120 minutes.
One drop, followed by two drops each at one minute intervals, was applied to one eye of normal adult white rabbits. Six rabbits were used in the experiment. The treated eye was selected randomly, whereas, the fellow eye received placebo. The observer was masked. The intraocular pressure (IOP) was measured with a Digilab Pneumotonometer, initially and every ten minutes for 120 minutes following instillation of the anti-glaucoma agent. A drop of local anesthetic was applied just prior to making the measurement.
IOP* Changes = (IOPDET - IOPCET) - (IOPDEO - IOPCEO)
IOPDET = measurement (mm Hg) of dosed eye at time t.
IOPDEO = measurement (mm Hg) of dosed eye at t = 0, but prior to
IOPDET = IOP measurement (mm Hg) of control (nondosed) eye at time t
IOPCEO = IOP measurement (mm Hg) of control eye at time t = 0
*Difference in IOP measurements (mm Hg) between both eyes just prior to
dosing at t = 0 (i.e., IOPDEO - IOPCEO).

As for `CN(O)S(=O)(=O)c1ccc(Cl)cc1` [1-(N-hydroxy-N-methylsulfamido)-4-chlorobenzene], the “IOP changes, Ave. change” value is 0.417 in test [1] (Example 6, 0 min); 0.617 in test [1] (Example 6, 20 min); 1.00 in test [1] (Example 6, 40 min); -1.25 in test [1] (Example 6, 60 min, probability less than 0.025); 0.167 in test [1] (Example 6, 80 min); 0.667 in test [1] (Example 6, 100 min). The “IOP changes, Ave. change” value in test [1] (Example 6, 120 min) is recorded as 0.333; in test [1] (Example 6, 140 min) it was “-.333”; in test [1] (Example 6, 160 min), -0.25; in test [1] (Example 6, 180 min) it was -0.25.

On to `CN(O)S(=O)(=O)c1ccc([N+](=O)[O-])cc1` [1-(N-hydroxy-N-methyl-sulfamido)-4-nitrobenzene], for which the “IOP changes, Ave. change” value is given as 0.167 in test [1] (Example 7, 0 min); 0.333 in test [1] (Example 7, 10 min); -0.333 in test [1] (Example 7, 20 min); “-.667” in test [1] (Example 7, 30 min); -1.67 in test [1] (Example 7, 40 min, probability less than 0.05); -1.83 in test [1] (Example 7, 50 min, probability less than 0.025). In addition, the “IOP changes, Ave. change” value in test [1] (Example 7, 60 min, probability less than 0.025 (footnote)) is 1.67; in test [1] (Example 7, 70 min, probability less than 0.025), -2.0; in test [1] (Example 7, 80 min, probability less than 0.05) it was -1.167; in test [1] (Example 7, 90 min), 0.2; in test [1] (Example 7, 100 min) it was -0.5; in test [1] (Example 7, 110 min) it was -0.33. The “IOP changes, Ave. change” value in test [1] (Example 7, 120 min) is listed as -1.00.

Turning to `CNS(=O)(=O)c1nnc(NC(C)=O)s1` [methyl acetazolamide, N-methyl-2-acetylamino-1,3,4-thiadiazole-5-sulfonamide], the “averaged I50 (concentration of drug causing 50% inhibition of enzyme)” value in test [2] (2 enzyme units of carbonic anhydrase in heparinized blood, 0° C., averaged over three determinations) is 0.520 mg. In addition, the “in vitro activity” value in test [2] (in vitro) was “inactive in vitro”. In test [2] (ratio 0.52/0.00914), the “activity relative to acetazolamide (ratio of I50 values)” value is 1/60. Further, the “IOP difference between both eyes, Av. Chg.” value in test [3] (0 min, just prior to dosing (baseline, IOPDEO - IOPCEO), six rabbits) was determined as 1.83 mm Hg. Moreover, the “lowering of IOP, statistical significance” value in test [3] (1% w/v suspension, 3 drops, all time intervals to 120 min) is recorded as “statistically significant at all time intervals”. Besides, in test [3] (after topical administration), the “reduction of intraocular pressure” value is on record as “able to reduce intraocular pressure”.
